# Data taken from patent US20150119373A1, “NOVEL BETULINIC ACID DERIVATIVES AS HIV INHIBITORS” (HETERO RESEARCH FOUNDATION, priority 2012, published 2015).
# Where two headings read alike, the source gives them in different places.
# Key:
# [1] = test system: HIV-1 strain 92HT599; test: Antiviral activity: p24 estimation in MT2 cells infected with HIV-1 strain 92HT599; type: cell-based; details: for inhibition at 0.1 µM: read-out: Antiviral activity % inhibition 100 nM; for inhibition at 1 µM: read-out: Antiviral activity % inhibition 1000 nM
# Description: MT2 cells were infected with HIV-1 strain 92HT599 (10 TCID 50/30000 cells). The infected cells were plated at the concentration of […] cells per well in 96 well plate. Test compound was added to the micro plate in defined format with the final concentration of DMSO (vehicle) is not more than 1%. Incubation was carried out in CO2 incubator for ˜96 hours for viral infection. At the end of incubation period an aliquot from each well was taken for p24 estimation. The quantitation of p24 is an index for antiviral activity of the compound. Percent inhibition was calculated with reference to control values (vehicle controls).
# p-24 estimation was carried out using Advance biosciences kit as per the procedure detailed by supplier.
# [2] = Cyto-toxicity assay (MTT) in MT2 cells without virus; type: cell-based; details: human
# Description: For cyto-toxicity assay the same amount of MT2 cells as in antiviral assay without virus was added to the 96 well plates. The cyto-toxicity was measured using MTT reagent in parallel with p24 estimation. The percent viability is calculated in comparison with vehicle control.
# [3] = Human immunodeficiency virus 1, 100 nM, MT2 cells, HIV-1 92HT599, ~96 hours, p24
# [4] = Human immunodeficiency virus 1, 1000 nM, MT2 cells, HIV-1 92HT599, ~96 hours, p24
# [5] = Human immunodeficiency virus 1, MT2, 96 h
structure (smiles),measurement,setting,value
"CC(C)(CC(=O)O)CC(=O)O[C@H]1CC[C@]2(C)[C@H]3CC[C@@H]4C5[C@H](C6(C)CC6)CC[C@]5(C(=O)N[C@H]5C[C@@H](C(=O)N6CCOCC6)C5(C)C)CC[C@@]4(C)[C@]3(C)CC[C@H]2C1(C)C (stereo partly drawn) [Example 52, 5-(((1R,3aS,5aR,5bR,7aR,9S,11aR,11bR,13aR)-3a-(((1S,3R)-2,2-dimethyl-3-(morpholine-4-carbonyl)cyclobutyl)carbamoyl)-5a,5b,8,8,11a-pentamethyl-1-(1-methylcyclopropyl)icosahydro-1H-cyclopenta[a]chrysen-9-yl)oxy)-3,3-dimethyl-5-oxopentanoic acid]",inhibition at 0.1 µM,[1]; [3],100%
same,inhibition at 1 µM,[1]; [4],100%
same,viability at 100 nM,[2],95%
same,viability at 1000 nM,[2],85%
"[2H]C([2H])([2H])C(N1CCN(C(=O)[C@]23CC[C@@H](C(=C)C)[C@@H]2[C@H]2CC[C@@H]4[C@@]5(C)CC[C@H](OC(=O)CC(C)(C)C(=O)O)C(C)(C)[C@@H]5CC[C@@]4(C)[C@]2(C)CC3)CC1)C([2H])([2H])[2H] [Example 7, 4-((1R,3aS,5aR,5bR,7aR,9S,11aR,11bR,13aR,13bR)-3a-(4-(1-methylethyl-2,2,2,1′,1′,1′-D6)piperazine-1-carbonyl)-5a,5b,8,8,11a-pentamethyl-1-(prop-1-en-2-yl)icosahydro-1H-cyclopenta[a]chrysen-9-yloxy)-2,2-dimethyl-4-oxobutanoic acid]",inhibition at 0.1 µM,[1]; [5],98%
same,inhibition at 1 µM,[1]; [5],97%
same,viability at 100 nM,"[2]; 100 nM, MT2 cells, MTT, read-out: Cytotoxicity % viability 100 nM",99%
same,viability at 1000 nM,"[2]; 1000 nM, MT2 cells, MTT, read-out: Cytotoxicity % viability 1000 nM",96%
"COCCOCCOC1CCN(C(=O)[C@]23CC[C@@H](C4(C)CC4)[C@@H]2[C@H]2CC[C@@H]4[C@@]5(C)CC[C@H](OC(=O)CC(C)(C)C(=O)O)C(C)(C)[C@@H]5CC[C@@]4(C)[C@]2(C)CC3)CC1 [Example 43, 4-(((1R,3aS,5aR,5bR,7aR,9S,11aR,11bR,13aR,13bR)-3a-(4-(2-(2-methoxyethoxyl)ethoxy)piperidine-1-carbonyl)-5a,5b,8,8,11a-pentamethyl-1-(1-methylcyclopropyl)icosahydro-1H-cyclopenta[a]chrysen-9-yl)oxy)-2,2-dimethyl-4-oxobutanoic acid]",inhibition at 0.1 µM,[1]; [3],99%
same,inhibition at 1 µM,[1]; [4],99%
same,viability at 100 nM,[2],100%
same,viability at 1000 nM,[2],100%
"CC(C)(CC(=O)O[C@H]1CC[C@]2(C)[C@H]3CC[C@@H]4[C@H]5[C@H](C6(C)CC6)CC[C@]5(C(=O)N5CCC(OCCN6CCOCC6)CC5)CC[C@@]4(C)[C@]3(C)CC[C@H]2C1(C)C)C(=O)O [Example 47, 2,2-dimethyl-4-oxo-4-(((1R,3aS,5aR,5bR,7aR,9S,11aR,11bR,13aR,13bR)-5a,5b,8,8,11a-pentamethyl-1-(1-methylcyclopropyl)-3a-(4-(2-morpholinoethoxyl)piperidine-1-carbonyl)icosahydro-1H-cyclopenta[a]chrysen-9-yl)oxy)butanoic acid]",inhibition at 0.1 µM,[1]; [3],100%
same,inhibition at 1 µM,[1]; [4],99%
same,viability at 100 nM,[2],100%
same,viability at 1000 nM,[2],96%
"CC(C)(CC(=O)O[C@H]1CC[C@]2(C)[C@H]3CC[C@@H]4C5[C@H](C6(C)CC6)CC[C@]5(C(=O)N[C@H]5C[C@@H](C(=O)N6CCOCC6)C5(C)C)CC[C@@]4(C)[C@]3(C)CC[C@H]2C1(C)C)C(=O)O (stereo partly drawn) [Example 51, 4-(((1R,3aS,5aR,5bR,7aR,9S,11aR,11bR,13aR)-3a-(((1S,3R)-2,2-dimethyl-3-(morpholine-4-carbonyl)cyclobutyl)carbamoyl)-5a,5b,8,8,11a-pentamethyl-1-(1-methylcyclopropyl)icosahydro-1H-cyclopenta[a]chrysen-9-yl)oxy)-2,2-dimethyl-4-oxobutanoic acid]",inhibition at 0.1 µM,[1]; [3],100%
same,inhibition at 1 µM,[1]; [4],100%
same,viability at 100 nM,[2],85%
same,viability at 1000 nM,[2],83%
"C=C(C)[C@@H]1CC[C@]2(c3nnc(-c4ccccc4)o3)CC[C@]3(C)[C@H](CC[C@@H]4[C@@]5(C)CC[C@H](OC(=O)[C@H]6[C@@H](CC(=O)O)C6(C)C)C(C)(C)[C@@H]5CC[C@]43C)[C@@H]12 [Example 5, 2-((1R,3S)-2,2-dimethyl-3-(((1R,3aS,5aR,5bR,7aR,9S,11aR,11bR,13aR,13bR)-5a,5b,8,8,11a-pentamethyl-3a-(5-phenyl-1,3,4-oxadiazol-2-yl)-1-(prop-1-en-2-yl)icosa hydro-1H-cyclopenta[a]chrysen-9-yloxy)carbonyl)cyclopropyl)acetic acid]",inhibition at 0.1 µM,[1]; [3],49%
same,inhibition at 1 µM,[1]; [4],92%
same,viability at 100 nM,[2],95%
same,viability at 1000 nM,[2],98%
"C=C(C)[C@@H]1CC[C@]2(C(=O)N3CCCCC3)CC[C@]3(C)[C@H](CC[C@@H]4[C@@]5(C)CC[C@H](OC(=O)[C@H]6[C@@H](CC(=O)O)C6(C)C)C(C)(C)[C@@H]5CC[C@]43C)[C@@H]12 [Compound 2, 2-((1R,3S)-2,2-dimethyl-3-(((1R,3aS,5aR,5bR,7aR,9S,11aR,11bR,13aR,13bR)-5a,5b,8,8,11a-pentamethyl-3a-(piperidine-1-carbonyl)-1-(prop-1-en-2-yl)icosahydro-1H-cyclopenta[a]chrysen-9-yloxy)carbonyl)cyclopropyl)acetic acid]",inhibition at 0.1 µM,[1]; [3],77%
same,inhibition at 1 µM,[1]; [4],98%
same,viability at 100 nM,[2],96%
same,viability at 1000 nM,[2],95%
CC(C)(CC(=O)O[C@H]1CC[C@]2(C)[C@H]3CC[C@@H]4[C@H]5[C@H](C6(C)CC6)CC[C@]5(C(=O)N5CCN(C(=O)C(C)(CO)CO)CC5)CC[C@@]4(C)[C@]3(C)CC[C@H]2C1(C)C)C(=O)O [Example 35],inhibition at 0.1 µM,[1]; [3],26%
same,inhibition at 1 µM,[1]; [4],84%
same,viability at 100 nM,[2],70%
same,viability at 1000 nM,[2],81%
"CCN1CCN(C2CCN(C(=O)[C@]34CC[C@@H](C5(C)CC5)[C@@H]3[C@H]3CC[C@@H]5[C@@]6(C)CC[C@H](OC(=O)[C@H]7C[C@@H](C(=O)O)C7(C)C)C(C)(C)[C@@H]6CC[C@@]5(C)[C@]3(C)CC4)CC2)CC1 [Example 46, (1R,3S)-3-((((1R,3aS,5aR,5bR,7aR,9S,11aR,11bR,13aR,13bR)-3a-(4-(4-ethylpiperazin-1-yl)piperidine-1-carbonyl)-5a,5b,8,8,11a-pentamethyl-1-(1-methylcyclopropyl)icosahydro-1H-cyclopenta[a]chrysen-9-yl)oxy)carbonyl)-2,2-dimethylcyclobutane-1-carboxylic acid]",inhibition at 0.1 µM,[1]; [3],100%
same,inhibition at 1 µM,[1]; [4],100%
same,viability at 100 nM,[2],100%
same,viability at 1000 nM,[2],90%
"C=C(C)[C@@H]1CC[C@]2(C(=O)N[C@@H]3C[C@H](C(=O)N4CCCCC4)C3(C)C)CC[C@]3(C)[C@H](CC[C@@H]4[C@@]5(C)CC[C@H](OC(=O)CC(C)(C)C(=O)OCOC)C(C)(C)[C@@H]5CC[C@]43C)[C@@H]12 [Example 9, 4-(1R,3aS,5aR,5bR,7aR,9S,11aR,11bR,13aR,13bR)-3a-((1R,3S)-2,2-dimethyl-3-(piperidine-1-carbonyl)cyclobutylcarbamoyl)-5a,5b,8,8,11a-pentamethyl-1-(prop-1-en-2-yl)icosahydro-1H-cyclopenta[a]chrysen-9-yl 1-methoxymethyl 2,2-dimethylsuccinate]",inhibition at 0.1 µM,[1]; [3],64%
same,inhibition at 1 µM,[1]; [4],99%
same,viability at 100 nM,[2],82%
same,viability at 1000 nM,[2],88%
